Experimental data: PubChem BioAssay AID284 (DTP/NCI, 2004)
Values joined by “and” are separate entries in the source; they are usually repeats but may differ in a detail not shown here. Identical values can stand only once. Inconclusive results and toxic doses are left out. Starred links: 1 amine or outer side, 2 acyl side, 3 side chain; linkers in the order of their positions; H or OH if unused. Positions of bridges follow the written chain, without caps; N, C: chain ends. Non-standard residues stand in square brackets, D forms with d. Residues, ends and D or L forms follow the SMILES beside them. Chains are numbered I, II in the order given. Actinocin(9to1) = Cc1c2oc3c(C)ccc(C(=O)[*:1])c3nc-2c(C(=O)[*:2])c(N)c1=O; aThr = C[C@H](O)[C@H](N)C(=O)O; NMeV = CN[C@H](C(=O)O)C(C)C; Sar = CNCC(=O)O

Tested on: BDF1 mice, L1210/MTX-resistant leukemia ip, survival T/C
Assay: NCI In Vivo Anticancer Drug Screen. Data for tumor model L1210 Leukemia resistant to Methotrexate; NSC 740 (intraperitoneal) in B6D2F1 (BDF1) mice
Conditions: endpoint: mean survival time, higher = longer survival
Method: The antitumor activity of compounds was measured in mice bearing transplantable tumors. Survival or tumor size were measured and the results are expressed as the measurement made in the treated group (T) divided by the measurement made in the vehicle treated control group (C). The tumor model used in this assay is L1210 Leukemia resistant to Methotrexate; NSC 740 (intraperitoneal) in B6D2F1 (BDF1) mice

[1] = dose: 50.0 mg/kg/injection, schedule: Q01DX Z (ip), vehicle: saline
[2] = dose: 12.5 mg/kg/injection, schedule: Q01DX010 (ip), vehicle: saline

SMILES: CC(=O)O[C@]1(C(C)=O)CC[C@H]2[C@@H]3C[C@H](C)C4=CC(=O)C=C[C@]4(C)[C@@]3(F)[C@@H](O)C[C@@]21C
- T/C (dose: 0.62 mg/kg/injection, schedule: Q01DX Z (sc), vehicle: steriod suspending solution): 96 % of control
- T/C (dose: 1.25 mg/kg/injection, schedule: Q01DX Z (sc), vehicle: steriod suspending solution): 97 % of control
- T/C (dose: 2.5 mg/kg/injection, schedule: Q01DX Z (sc), vehicle: steriod suspending solution): 100 % of control
- T/C (dose: 5.0 mg/kg/injection, schedule: Q01DX Z (sc), vehicle: steriod suspending solution): 101 % of control
- T/C (dose: 12.5 mg/kg/injection, schedule: Q01DX010 (sc), vehicle: steriod suspending solution): 101 % of control
- T/C (dose: 25.0 mg/kg/injection, schedule: Q01DX010 (sc), vehicle: steriod suspending solution): 100 % of control
- T/C (dose: 37.5 mg/kg/injection, schedule: Q01DX Z (sc), vehicle: steriod suspending solution): 150 % of control
- T/C (dose: 50.0 mg/kg/injection, schedule: Q01DX010 (sc), vehicle: steriod suspending solution): 88 % of control
- T/C (dose: 100.0 mg/kg/injection, schedule: Q01DX010 (sc), vehicle: steriod suspending solution): 88 % of control

SMILES: C[C@]12CCC(=O)C=C1CC[C@@H]1[C@@H]2C(=O)C[C@@]2(C)[C@H]1CC[C@]2(O)C(=O)CO
- T/C (dose: 63.0 mg/kg/injection, schedule: Q01DX Z (sc), vehicle: steriod suspending solution): 101 % of control and 106 % of control
- T/C (dose: 100.0 mg/kg/injection, schedule: Q01DX Z (sc), vehicle: steriod suspending solution): 89 % of control
- T/C (dose: 125.0 mg/kg/injection, schedule: Q01DX Z (sc), vehicle: steriod suspending solution): 98 % of control and 102 % of control

SMILES: Cc1c2oc3c(C)ccc(C(=O)N[C@@H]4C(=O)N[C@H](C(C)C)C(=O)N5CCC[C@H]5C(=O)N(C)CC(=O)N(C)[C@@H](C(C)C)C(=O)O[C@H]4C)c3nc-2c(C(=O)N[C@@H]2C(=O)N[C@H](C(C)C)C(=O)N3CCC[C@H]3C(=O)N(C)CC(=O)N(C)[C@@H](C(C)C)C(=O)O[C@H]2C)c(N)c1=O (I: [aThr][dV]P[Sar][NMeV] / II: [aThr][dV]P[Sar][NMeV]; ester I:1-I:C, II:1-II:C; linker I:N-II:N via Actinocin(9to1))
- T/C (dose: 12.0 micrograms/kg/injection, schedule: Q01DX Z (ip), vehicle: saline): 157 % of control
- T/C (dose: 12.5 micrograms/kg/injection, schedule: Q01DX Z (ip), vehicle: saline): 103 % of control
- T/C (dose: 32.0 micrograms/kg/injection, schedule: Q01DX Z (ip), vehicle: saline): 92 % of control and 104 % of control
- T/C (dose: 50.0 micrograms/kg/injection, schedule: Q01DX Z (ip), vehicle: saline): 114 % of control and 117 % of control
- T/C (dose: 63.0 micrograms/kg/injection, schedule: Q01DX Z (ip), vehicle: saline): 98 % of control and 104 % of control
- T/C (dose: 125.0 micrograms/kg/injection, schedule: Q01DX Z (ip), vehicle: saline): 117 % of control and 101 % of control

SMILES: CN(N=O)C(N)=O
- T/C (dose: 5.0 mg/kg/injection, schedule: Q01DX010 (ip), vehicle: saline): 122 % of control
- T/C (dose: 12.5 mg/kg/injection, schedule: Q01DX Z (ip), vehicle: saline): 105 % of control
- T/C (dose: 25.0 mg/kg/injection, schedule: Q01DX Z (ip), vehicle: saline): 101 % of control
- T/C [1]: 103 % of control

SMILES: O=c1cnn(C2OC(CO)C(O)C2O)c(=O)[nH]1 (configuration not stated)
- T/C (dose: 125.0 mg/kg/injection, schedule: Q01DX Z (ip), vehicle: methylcellulose (MC)): 97 % of control
- T/C (dose: 250.0 mg/kg/injection, schedule: Q01DX Z (ip), vehicle: methylcellulose (MC)): 95 % of control
- T/C (dose: 500.0 mg/kg/injection, schedule: Q01DX Z (ip), vehicle: methylcellulose (MC)): 104 % of control

SMILES: CCCNc1ncnc2[nH]ncc12
- T/C (dose: 3.13 mg/kg/injection, schedule: Q01DX010 (ip), vehicle: saline): 90 % of control and 91 % of control
- T/C (dose: 6.25 mg/kg/injection, schedule: Q01DX010 (ip), vehicle: saline): 100 % of control and 102 % of control
- T/C [2]: 86 % of control and 97 % of control

SMILES: CN(N=O)C(=O)NC(C=O)C(O)C(O)C(O)CO (configuration not stated)
- T/C [2]: 100 % of control
- T/C [1]: 106 % of control
- T/C (dose: 100.0 mg/kg/injection, schedule: Q01DX010 (ip), vehicle: saline): 100 % of control
- T/C (dose: 100.0 mg/kg/injection, schedule: Q01DX Z (ip), vehicle: saline): 97 % of control

SMILES: C[C@]12CC[C@H](OC3OC(CO)C(O)C(O)C3O)C[C@H]1CC[C@@H]1[C@@H]2CC[C@]2(C)[C@@H](C3=CCOC3=O)CC[C@]12O (some centres not stated)
- T/C (dose: 1.0 mg/kg/injection, schedule: Q01DX Z (ip), vehicle: saline): 86 % of control

SMILES: COS(C)(=O)=O
- T/C (dose: 5.0 mg/kg/injection, schedule: Q01DX Z (ip), vehicle: saline): 105 % of control
- T/C (dose: 10.0 mg/kg/injection, schedule: Q01DX Z (ip), vehicle: saline): 103 % of control
- T/C (dose: 20.0 mg/kg/injection, schedule: Q01DX Z (ip), vehicle: saline): 103 % of control
- T/C (dose: 40.0 mg/kg/injection, schedule: Q01DX Z (ip), vehicle: saline): 97 % of control
